Converted amounts (≈) assume the structure as drawn. Like-named read-outs stand apart in the source and are kept apart here. Where only a bound is given, the exact number is not on record here.

This is an account of results in patent US20260069580A1, “PEROXIREDOXIN 3 INHIBITORS AND METHODS OF USE FOR TREATING CANCER” (WAKE FOREST UNIVERSITY HEALTH SCIENCES, priority 2022, published 2026).

For data set [1], the system named is human SK—OV-3 ovarian cancer cells. The experiment in a line: Cellular Activity Assay (cytotoxicity, crystal violet). It is filed as cell-based. From the text:
To test the activity of compounds, two complimentary assays were used as described below. The Biochemical PRX3 Inhibition Assay tests the ability of each compound to crosslink PRX3 in a simple, in vitro system. In the Cellular Activity Assay, we are testing the ability of compounds to kill SK—OV-3 ovarian cancer cells.
The Cellular Activity Assay measures the EC50 of each compound in human SK—OV-3 ovarian cancer cells TS to be taken into the cell, transported to the mitochondria, and crosslink PRX3.
The cytotoxicity of compounds was measured as described in Nelson et al. (2021) Antioxidants (Basel) 10, 150; Cunniff et al. (2015) PloS one 10, e0127310; and Newick et al. (2012) PloS one 7, e39404. SK—OV-3 is an adherent, epithelial, adenocarcenoma cell line obtained from ATCC (ref #: HTB-77). SK—OV-3 cells are resistant to the commonly used chemotherapeutics, cis-platinum and doxorubicin. For this […], SK—OV-3 cells were plated in a 96-well plate. After 24 h recovery, the cells were treated for 48 hr with multiple concentrations of each compound ranging from 0.1-100 μM.
Cells were washed with PBS to remove dead cells and the remaining live cells were fixed with 3.0% formaldehyde and stained with 0.1% crystal violet. The amount of crystal violet was determined by reading the absorbance at 540 nm (crystal violet dye dissolved in 100% methanol) using a plate reader. The signal for crystal violet dye is proportional to the biomass of remaining live cells. GraphPad Prism9 software was used to calculate the effective inhibitory concentration (EC50) of test compounds. Results for each compound, are normalized to the amount of cells in control wells treated with the equivalent concentration of DMSO (negative control). TS or Compound A (Reference Compound) were included in each set of assays as a positive control.

A further data set addresses T1, purified human PRX3 (Homo sapiens, UniProt P30048).
T1 construct: made in house
T1 sequence (P30048 62-256): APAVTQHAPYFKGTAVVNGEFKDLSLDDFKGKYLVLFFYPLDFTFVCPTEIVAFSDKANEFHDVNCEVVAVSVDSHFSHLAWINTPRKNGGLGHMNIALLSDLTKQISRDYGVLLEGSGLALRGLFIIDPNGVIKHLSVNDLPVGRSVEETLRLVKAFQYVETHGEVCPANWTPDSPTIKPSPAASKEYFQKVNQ
The data set is described as follows: Biochemical PRX3 Inhibition Assay (crosslink by SDS PAGE + mono-adduct by MALDI-TOF MS). The note with it: incubated 1-2 hr at 37° C., hydrogen peroxide added. The method, then:
This assay tests the ability of each compound to form a covalent adduct with PRX3. The assay is performed as described in Nelson et al. (2021) Antioxidants (Basel) 10, 150; and Cunniff et al. (2015) PloS one 10, eO127310, and follows the appearance of non-reducible PRX3 crosslinks by SDS PAGE gel electrophoresis and follows the appearance of single PRX3 adducts by mass spectrometry. For this assay, purified human PRX3, hydrogen peroxide (the PRX3 substrate) and all the components required to enable PRX3 to catalytically cycle (thioredoxin-thioredoxin reductase-NAPDH system) are included (details below).
The biochemical PRX3 Inhibition assay contains 100 µM PRX3, 50 µM human TRX2, 0.5 μM mouse thioredoxin reductase, and a NADPH regenerating system composed of 3.2 mM glucose 6-phosphate, 3.2 U/ml glucose 6-phosphate dehydrogenase and 0.4 mM NADPH. Samples are incubated for 1-2 hr at 37° C. with either 0.2 mM TS (positive control), compounds or an equivalent volume of DMSO (negative control). During this incubation, hydrogen peroxide is added to induce turnover of PRX3. Reactions are stopped by the addition of a buffer containing 100 mM dithiolthreitol (to break disulfide bonds) and SDS (detergent to denature proteins). NADPH, Glucose 6-Phosphate, and glucose 6-phosphate dehydrogenase were purchased from Sigma Aldrich. PRX3, thioredoxin, and thioredoxin reductase were all purified to >98% purity in the Lowther laboratory according to protocols referenced in Nelson et al. (2021) Antioxidants (Basel) 10, 150; and Cunniff et al. (2015) PloS one 10, e0127310.
To measure the amount of PRX3 crosslink, proteins in the reaction were separated by SDS-polyacrlyamide gel electrophoresis and stained for total protein using GelCode Blue (Life Technologies). The amount of unmodified PRX3 and TS-PRX3 crosslink was measured by densiometric analysis of the signal for the PRX3 band running at the MW of a PRX3 crosslink (˜46 kDa) compared to the PRX3 signal at the MW of the un-modified PRX3 (˜23 kD).
To measure covalent adduct formation on a single PRX3 monomer, each reaction was exchanged into a mass spectrometry compatible buffer containing 40 mM ammonium citrate, pH 8.3 made in HPLC water. Sample was mixed 1:1 with a matrix solution containing 30 mg/mL sinapinic acid in 70% (vol/vol) acetonitrile, 0.2% formic acid and spotted to onto the sample plate. PRX3 mass was measured by MALDI-TOF MS analysis on a Bruker Daltonics MALDI-TOF MS spectrometer. Spectra were analyzed in FLEXAnalysis Software. The intensity of the reduced PRX3 peak (SH) and intensity of the analog adduct peak was determined and corrected for background signal at the adduct peak in the DMSO control. The fraction of single analog adduct in the monomer peak was determined by dividing the intensity of the adduct peak by the summed intensity of the SH and adduct peaks.

A short description of another data set: Solubility Assay. Also noted: key: +++: >1 mM; ++: 0.1-1 mM; +: <0.1 mM; −: polymerized; n.d.: not detectable/not measurable. The note with it: 20 mM HEPES, 100 mM NaCl, pH 7.5, 18-24 hours at ambient temperature, HPLC. It is filed as physicochemical. The method, then:
A 20 mM stock solution was made for each compound in DMSO. To measure solubility, 0.03-0.05 mL of the stock was added to 0.27 mL 20 mM HEPES, 100 mM NaCl, pH 7.5. The solution was mixed and rotated 18-24 hours at ambient temperature. The next day, solutions were centrifuged for 10 min at 20,000×g at 24° C. to remove insoluble, solid material. Next, 100 μL of the supernatant containing the soluble compound was added to 900 μL DMSO and High Performance Liquid Chromatography was performed as described in Table 1 and either HPLC gradient 1 (Table 2) for HPLC gradient 2 (Table 3). For each analog, a 200 μM standard and a 20 μM standard were prepared and run in parallel (standards were dissolved completely in 100% DMSO). The amount of compound in the experimental sample was calculated by comparing the area under the curve for compound peak to the area for the closest standard and correcting for dilution.

Data set [2] has as its system Enterococcus hirae (ATCC #10541). The data set is described as follows: Antimicrobial Activity Assay. It counts as cell-based. The conditions noted are these: for MIC: Enterococcus hirae. The method, then: The overnight growth was then diluted into growth media to make a single solution of E. hirae with a final optical density at 600 nm=0.02 AU. A 20 mM stock solution of Thiostrepton in DMSO was made and used to make multiple dilutions of TS in DMSO. Each TS dilution (0.1 mL) was then added to a test tube containing 10 mL of the diluted E. hirae and grown at 37° C. overnight while shaking at 180 rpm. The next morning, each tube was visually inspected to determine if the cells grew. Final concentrations tested were 0.120, 0.090, 0.075, 0.060, 0.045, 0.030, and 0.015 μM TS. […] Three replicates were made on three separate days (n=9). […] For TS analogs, the dilute E. hirae was treated with 20 µM final concentration of each analog (three replicates each). […] DMSO was used as a positive control (complete cell growth) and 20 µM thiostrepton was used as a negative control.

For another data set, the system named is 578 cancer cells lines. The conditions noted are these: of 578 cancer cells lines tested; cited from earlier work.
Setting [3] is: HEPES/NaCl buffer, aqueous with cosolvent or surfactant or cyclodextrin, kinetic from dmso stock, read-out: Solubility.
[4] abbreviates: ATCC10541, read-out: Antimicrobial Activity.
Setting [5] is: SK—OV-3 cells, treated 48 hr, 0.1-100 μM, crystal violet, read-out: EC50.
Where [6] appears, read: ATCC10541, E. hirae, overnight growth at 37° C., read-out: Antimicrobial Activity.

In turn, `C=C(NC(=O)c1cn(-c2ccccc2)cn1)C(=O)NC(=C)C(=O)OC` [Compound 1, Methyl 2-(2-(1-phenyl-1H-imidazole-4-carboxamido)acrylamido)acrylate] had an EC50 in data set [1] (SK-OV-3, 48 h) of 1 to 10 µM. Moreover, the “PRX3 Inhibition (Crosslink + Mono-adduct)” value (“PRX3 Inhibition” for short) at purified human PRX3 is listed as “+++ (>90%)”. Further, the solubility in “Solubility Assay” (setting [3]) is less than 100 µM. Besides, the MIC in data set [2] (setting [4]) was more than 20 µM.
As for `C=C(NC(=O)c1cnn(-c2ccccc2)c1)C(=O)NC(=C)C(=O)OC` [Compound 2, Methyl 2-(2-(1-phenyl-1H-pyrazole-4-carboxamido)acrylamido)acrylate], the 50% effective concentration (EC50) in data set [1] (setting [5]) lay in the range of 10 to 25 µM. Further, the “PRX3 Inhibition” value on purified human PRX3 is “++ (50-90%)”. The solubility in “Solubility Assay” (setting [3]) is more than 1000 µM. Moreover, the MIC in data set [2] (setting [6]) was more than 20 µM.
In the case of `C=C(NC(=O)OCC1CCN(C(=O)OC(C)(C)C)CC1)C(=O)NC(=C)C(=O)OC` [Compound 3, Tert-butyl 4-(5,8-dimethylene-3,6,9-trioxo-2,10-dioxa-4,7-diazaundecyl)piperidine-1-carboxylate], the “PRX3 Inhibition” value at purified human PRX3 is reported as “+ (5-50%)”. For the same compound, the solubility result in “Solubility Assay” is “−”.
Consider `C=C(NC(=O)OC1CCN(C(=O)OC(C)(C)C)CC1)C(=O)NC(=C)C(=O)OC` [Compound 4, Tert-butyl 4-(((3-((3-methoxy-3-oxoprop-1-en-2-yl)amino)-3-oxoprop-1-en-2-yl)carbamoyl)oxy)piperidine-1-carboxylate], for which the EC50 in data set [1] (setting [5]) was more than 100 µM. The “PRX3 Inhibition” value on purified human PRX3 is recorded as “++ (50-90%)”. In addition, in “Solubility Assay” (setting [3]), the solubility is more than 1000 µM. The MIC in data set [2] (setting [6]) is more than 20 µM.
In the same order, the values of `C=C(NC(=O)c1cn(C2CCN(C(=O)OC(C)(C)C)CC2)nn1)C(=O)NC(=C)C(=O)OC` [Compound 5, Tert-butyl 4-(4-((3-((3-methoxy-3-oxoprop-1-en-2-yl)amino)-3-oxoprop-1-en-2-yl)carbamoyl)-1H-1,2,3-triazol-1-yl)piperidine-1-carboxylate] are 1 to 10 µM, “++ (50-90%)”, less than 100 µM and more than 20 µM.
Turning to `C=C(NC(=O)c1ccn(C2CCN(C(=O)OC(C)(C)C)CC2)n1)C(=O)NC(=C)C(=O)OC` [Compound 6, Tert-butyl 4-(3-((3-((3-methoxy-3-oxoprop-1-en-2-yl)amino)-3-oxoprop-1-en-2-yl)carbamoyl)-1H-pyrazol-1-yl)piperidine-1-carboxylate], the concentration for a half-maximal effect (EC50) in data set [1] (setting [5]) fell in the range of 25 to 100 µM. In addition, on purified human PRX3, the “PRX3 Inhibition” value is on record as “+++ (>90%)”. For the same compound, the solubility in the data set “Solubility Assay” (setting [3]) was more than 1000 µM. In data set [2] (setting [6]), the MIC was more than 20 µM.
For the compound `C=C(NC(=O)c1csc(-c2ccc(NC(=O)CCCCCBr)cc2)n1)C(=O)NC(=C)C(=O)OC` [Compound A, Methyl 2-(2-(2-(4-(6-bromohexanamido)phenyl)thiazole-4-carboxamido)acrylamido)acrylate, reference compound], in the data set “Solubility Assay” (setting [3]), the solubility was less than 100 µM. Further, the “Antimicrobial Activity” value in data set [2] (E. hirae, overnight growth at 37° C.) is on record as “− (>20 μM)”.
`C=C(NC(=O)C(=C)NC(=O)c1csc(C2=N[C@@H]3c4csc(n4)[C@H]4NC(=O)c5csc(n5)[C@H]([C@](C)(O)[C@@H](C)O)NC(=O)[C@H]5CSC(=N5)/C(=C/C)NC(=O)[C@H]([C@@H](C)O)NC(=O)c5csc(n5)[C@]3(CC2)NC(=O)[C@H](C)NC(=O)C(=C)NC(=O)[C@H](C)NC(=O)[C@H]([C@@H](C)CC)N[C@@H]2C=Cc3c([C@H](C)O)cc(nc3[C@H]2O)C(=O)O[C@@H]4C)n1)C(N)=O` [Thiostrepton, reference compound] gave a 50% effective concentration (EC50) in data set [1] (SK-OV-3, 48 h) of 1 to 10 µM. Also, the “PRX3 Inhibition” value at purified human PRX3 is reported as “++ (50-90%)”. For the same compound, the solubility in the data set “Solubility Assay” (aqueous with cosolvent or surfactant or cyclodextrin, kinetic from dmso stock, read-out: Solubility) was less than 100 µM. Also, the “TS concentrations at which complete growth was observed” value in data set [2] (E. hirae, overnight at 37° C., visual inspection, n=9) is not above 0.030 µM. The MIC in data set [2] (setting [4]) was 0.02 to 0.2 µM (≈ 0.0333 to 0.333 µg/mL); in data set [2] (ATCC10541, read-out: TS concentrations at which no growth was observed (MIC determination)), not below 0.045 µM. The “tumor cells lines in which meaningful efficacy was shown” value in the data set with 578 cancer cells lines is given as 403.

Broadly, the EC50 is the midpoint of the concentration-response curve. By solubility is commonly meant the concentration that dissolves in the medium under given conditions.
